{"source": "patent US11041859B2", "about": "“Methods of identifying SENP1 inhibitors” (priority 2013, dated 2021)", "system": "HeLa cells", "assay": "Accumulation of SUMOylated proteins in HeLa cells (Western blot, 48 hours)", "format": "cell-based", "data": [{"smiles": "Nc1ccc2ccccc2c1/N=N/c1ccc(/C=C/c2ccc(/N=N/c3c(N)ccc4ccccc34)cc2S(=O)(=O)O)c(S(=O)(=O)O)c1", "note": "[SPI-01]", "values": [{"measurement": "accumulation of SUMO-1 conjugates in cells", "result": "less significant effects"}, {"measurement": "accumulation of SUMO-2/3 conjugates in cells", "setting": "increasing concentrations", "result": "accumulation correlated with inhibitor concentration"}]}]}
